Source: patent publication US20210267984A1, “APPLICATION OF ALLOPURINOL IN PREPARATION OF DRUG FOR TREATING CANCER WITH HIGH EXPRESSION OF PAICS GENE” (priority 2018, published 2021)

What was measured:
[1] = system: cancer with abnormally high expression of the PAICS gene; experiment: Anti-cancer and therapeutic effect, cancers with abnormally high PAICS expression
Source text: (§1) This property of allopurinol is different from those of most chemotherapeutic drugs.

SMMC-7221 = conditions: data of CN102746306A; cited from earlier work
[2] = system: cancers with non-abnormally high expression of the PAICS gene; experiment: Therapeutic effect, cancers with non-abnormally high PAICS expression; conditions: cancers with non-abnormally high PAICS expression such as renal cancer, skin cutaneous melanoma, pheochromocytoma and paraganglioma
Source text: as §1

Cholangiocarcinoma = experiment: Anti-cancer effect of allopurinol (cell biology screening combined with animal experiments); conditions: CHOL; PAICS abnormally high expression
Source text: as §1

[3] = system: Bladder Urothelial Carcinoma; experiment: as above; conditions: BLCA; PAICS abnormally high expression
Source text: as §1

Rectum adenocarcinoma = experiment: as above; conditions: READ; PAICS abnormally high expression
Source text: as §1

[4] = system: Liver hepatocellular carcinoma; experiment: as above; conditions: LIHC; PAICS abnormally high expression
Source text: as §1

Stomach adenocarcinoma = experiment: as above; conditions: STAD; PAICS abnormally high expression
Source text: as §1

[5] = system: Breast invasive carcinoma; experiment: as above; conditions: BRCA; PAICS abnormally high expression
Source text: as §1

Esophageal carcinoma = experiment: as above; conditions: ESCA; PAICS abnormally high expression
Source text: as §1

[6] = system: Cervical squamous cell carcinoma and endocervical adenocarcinoma; experiment: as above; conditions: CESC; PAICS abnormally high expression
Source text: as §1

[7] = system: Pancreatic adenocarcinoma; experiment: as above; conditions: PAAD; PAICS abnormally high expression
Source text: as §1

Lung adenocarcinoma = experiment: as above; conditions: LUAD; PAICS abnormally high expression
Source text: as §1

Prostate adenocarcinoma = experiment: as above; conditions: PRAD; PAICS abnormally high expression
Source text: as §1

[8] = system: Lung squamous cell carcinoma; experiment: as above; conditions: LUSC; PAICS abnormally high expression
Source text: as §1

[9] = system: Uterine Corpus Endometrial Carcinoma; experiment: as above; conditions: UCEC; PAICS abnormally high expression
Source text: as §1

Colon adenocarcinoma = experiment: as above; conditions: COAD; PAICS abnormally high expression
Source text: as §1

[10] = system: Head and Neck squamous cell carcinoma; experiment: as above; conditions: HNSC; PAICS abnormally high expression
Source text: as §1

Glioblastoma multiforme = experiment: as above; conditions: GBM; PAICS abnormally high expression
Source text: as §1

Bel-7402 = conditions: data of CN102746306A; cited from earlier work

In the case of Oc1ncnc2[nH]ncc12 [allopurinol, Allopurinol], the “anti-cancer and therapeutic effects” value [1] is given as “significant anti-cancer and therapeutic effects”, the anti-tumor activity (SMMC-7221) is given as “no anti-tumor activity” and the therapeutic effect [2] is given as “no significant therapeutic effect”. The “Anti-cancer effect of allopurinol” value (Cholangiocarcinoma) was “Significant”, the “Anti-cancer effect of allopurinol” value [3] was “Significant” and the “Anti-cancer effect of allopurinol” value (Rectum adenocarcinoma) was “Significant”. For the same molecule, the “Anti-cancer effect of allopurinol” value [4] was “Significant”, the “Anti-cancer effect of allopurinol” value (Stomach adenocarcinoma) was “Significant” and the “Anti-cancer effect of allopurinol” value [5] was “Significant”. For the same molecule, the “Anti-cancer effect of allopurinol” value (Esophageal carcinoma) was “Significant”, the “Anti-cancer effect of allopurinol” value [6] was “Significant” and the “Anti-cancer effect of allopurinol” value [7] was “Significant”. The “Anti-cancer effect of allopurinol” value (Lung adenocarcinoma) was “Significant”, the “Anti-cancer effect of allopurinol” value (Prostate adenocarcinoma) was “Significant” and the “Anti-cancer effect of allopurinol” value [8] was “Significant”. For the same molecule, the “Anti-cancer effect of allopurinol” value [9] was “Significant”, the “Anti-cancer effect of allopurinol” value (Colon adenocarcinoma) was “Significant” and the “Anti-cancer effect of allopurinol” value [10] was “Significant”. For the same molecule, the “Anti-cancer effect of allopurinol” value (Glioblastoma multiforme) was “Significant” and the anti-tumor activity (Bel-7402) was “no anti-tumor activity”.
